Laboratory results: patent US9637516B2, “Betulinic acid proline derivatives as HIV inhibitors” (HETERO RESEARCH FOUNDATION, priority 2012, dated 2017)

Key:
in vitro = format: cell-based; conditions: human, Cytotoxicity % viability
Protocol: (§1) For cyto-toxicity assay the same amount of MT2 cells as in antiviral assay without virus was added to the 96 well plates. The cyto-toxicity was measured using MTT reagent in parallel with p24 estimation. The percent viability is calculated in comparison with vehicle control.

MT2 cells = assay: in vitro; format: cell-based; conditions: human, 1 µM
Protocol: as §1

HIV-1 strain 92HT599 = assay: Antiviral activity: p24 estimation in MT2 cells infected with HIV-1 strain 92HT599; format: cell-based; conditions: for inhibition at 0.1 µM: Human immunodeficiency virus 1, 100 nM; for inhibition at 0.1 µM / inhibition at 1 µM: HIV-1 92HT599, p24, ~96 hours; for inhibition at 1 µM: Human immunodeficiency virus 1, 1000 nM; for IC50: Human immunodeficiency virus 1, HIV-1 92HT599, p24
Protocol: MT2 cells were infected with HIV-1 strain 92HT599 (10 TCID 50/30000 cells). The infected cells were plated at the concentration of ˜30 000 cells per well in 96 well plate. Test compound was added to the micro plate in defined format with the final concentration of DMSO (vehicle) is not more than 1%. Incubation was carried out in CO2 incubator for ˜96 hours for viral infection. At the end of incubation period an aliquot from each well was taken for p24 estimation. The quantitation of p24 is an index for antiviral activity of the compound. Percent inhibition was calculated with reference to control values (vehicle controls). p-24 estimation was carried out using Advance biosciences kit as per the procedure detailed by supplier.

[1] = Single dose oral pharmacokinetic study; format: in vivo, mice; conditions: mouse, plasma
Protocol: The test item was administered through oral route to animals (rat/mice) at 30 mg/kg dose in a suitable vehicle at 10 ml/kg dose volume. Blood samples (˜50 uL at each time point) were collected from retro-orbital plexus using K3 EDTA as anticoagulant in eppendorf tubes at defined time intervals under light ether anesthesia. The samples were centrifuged at 3500×g to separate plasma and stored at −80° C. until analysis.
Sample analysis: Test samples were analyzed using LC-MS-MS after developing fit-for-purpose method for each of test compound.

[2] = Mice oral PK @30 mg/kg (Table 3)
[3] = Mice oral PK @30 mg/kg (Table 4)

Row | SMILES | viability at 1 µM (in vitro) | Cytotoxicity % viability (MT2 cells) | inhibition at 0.1 µM (HIV-1 strain 92HT599) | inhibition at 1 µM (HIV-1 strain 92HT599) | IC50 (HIV-1 strain 92HT599) | AUC(0-t) [1, 2] | Cmax [1, 2] | Tmax [1, 2] | AUC(0-inf) [1, 3] | AUC(0-t) [1, 3] | Cmax [1, 3] | half-life [1, 3]
1 | C=C(C)[C@@H]1CC[C@]2(C(=O)N3CCC[C@@H]3c3nc(-c4ccccc4)no3)CC[C@]3(C)[C@H](CC[C@@H]4[C@@]5(C)CC[C@H](OC(=O)CC(C)(C)CC(=O)O)C(C)(C)[C@@H]5CC[C@]43C)[C@@H]12 [Compound 2, 3,3-dimethyl-5-oxo-5-((1R,3aS,5aR,5bR,7aR,9S,11aR,11bR,13aR,13bR)-5a,5b,8,8,11a-pentamethyl-3a-((R)-2-(3-phenyl-1,2,4-oxadiazol-5-yl)pyrrolidine-1-carbonyl)-1-(prop-1-en-2-yl)icosahydro-1H-cyclopenta[a]chrysen-9-yloxy)pentanoic acid] | 90% | 92% | 30% | 90% | – | – | – | – | – | – | – | –
2 | C=C(C)[C@@H]1CC[C@]2(C(=O)N3CCC[C@@H]3c3nc(-c4cccnc4)no3)CC[C@]3(C)[C@H](CC[C@@H]4[C@@]5(C)CC[C@H](OC(=O)CC(C)(C)C(=O)O)C(C)(C)[C@@H]5CC[C@]43C)[C@@H]12 [Compound 3, 2,2-dimethyl-4-oxo-4-((1R,3aS,5aR,5bR,7aR,9S,11aR,11bR,13aR,13bR)-5a,5b,8,8,11a-pentamethyl-1-(prop-1-en-2-yl)-3a-((R)-2-(3-(pyridin-3-yl)-1,2,4-oxadiazol-5-yl)pyrrolidine-1-carbonyl)icosahydro-1H-cyclopenta[a]chrysen-9-yloxy)butanoic acid] | 97% | 100% | 100% | 100% | 3.34 nM | 66.5 µg·h/mL | 7430 ng/mL | 1.75 h | – | – | – | –
3 | CC(C)(CC(=O)O[C@H]1CC[C@]2(C)[C@H]3CC[C@@H]4[C@H]5[C@H](C6(C)CC6)CC[C@]5(C(=O)N5CCC[C@@H]5c5nc(-c6ccccc6)no5)CC[C@@]4(C)[C@]3(C)CC[C@H]2C1(C)C)C(=O)O [Compound 5, 2,2-dimethyl-4-oxo-4-((1R,3aS,5aR,5bR,7aR,9S,11aR,11bR,13aR,13bR)-5a,5b,8,8,11a-pentamethyl-1-(1-methylcyclopropyl)-3a-((R)-2-(3-phenyl-1,2,4-oxadiazol-5-yl)pyrrolidine-1-carbonyl)icosahydro-1H-cyclopenta[a]chrysen-9-yloxy)butanoic acid] | 91% | 100% | 64% | 99% | – | – | – | – | – | – | – | –
4 | CC(C)(CC(=O)O[C@H]1CC[C@]2(C)[C@H]3CC[C@@H]4[C@H]5[C@H](C6(C)CC6)CC[C@]5(C(=O)N5CCC[C@H]5c5ncc(-c6ccccc6)[nH]5)CC[C@@]4(C)[C@]3(C)CC[C@H]2C1(C)C)C(=O)O [Compound 12, 2,2-dimethyl-4-oxo-4-((1R,3aS,5aR,5bR,7aR,9S,11aR,11bR,13aR,13bR)-5a,5b,8,8,11a-pentamethyl-1-(1-methylcyclopropyl)-3a-((S)-2-(5-phenyl-1H-imidazol-2-yl)pyrrolidine-1-carbonyl)icosahydro-1H-cyclopenta[a]chrysen-9-yloxy)butanoic acid] | 85% | – | 100% | 100% | 4.59 nM | 69.3 µg·h/mL | 7260 ng/mL | 3 h | – | – | – | –
5 | CC1(C)C(C(=O)O)CC1C(=O)O[C@H]1CC[C@]2(C)[C@H]3CC[C@@H]4[C@H]5[C@H](C6(C)CC6)CC[C@]5(C(=O)N5CCC[C@H]5c5ncc(-c6ccccc6)[nH]5)CC[C@@]4(C)[C@]3(C)CC[C@H]2C1(C)C (stereo partly drawn) [Compound 43, 2,2-dimethyl-3-((((1R,3aS,5aR,5bR,7aR,9S,11aR,11bR,13aR,13bR)-5a,5b,8,8,11a-pentamethyl-1-(1-methylcyclopropyl)-3a-((S)-2-(5-phenyl-1H-imidazol-2-yl)pyrrolidine-1-carbonyl)icosahydro-1H-cyclopenta[a]chrysen-9-yl)oxy)carbonyl)cyclobutane-1-carboxylic acid] | – | – | – | – | 4.4 nM | – | – | – | 776 µg·h/mL | 294 µg·h/mL | 13900 ng/mL | 55.6 h
